The values below come from US9802921B2, “Fluoromethyl-substituted pyrrole carboxamides iv” (Grünenthal GmbH, priority 2013, dated 2017).

This experiment deals with T1, Human CaV2.2 channels (Homo sapiens, UniProt Q00975).
T1 construct: expressed in transfected cells
The experiment is described as follows: Fluorescent assay for CaV2.2 channels using potassium depolarization to induce channel opening (FLIPR, Fluo 4). It counts as cell-based. The note with it: read-out: Activity Category: %-Inhib (CaV2.2) @3 μM @30 mM KCl; 3 μM test compound; 30 mM KCl as printed; HEK293 cells stably expressing human CaV2.2. An excerpt: In the process, the Ca^2+ influx is quantified in the FLIPR assay with the aid of a Ca^2+-sensitive dye (type Fluo-4, Molecular Probes Europe BV, Leiden, the Netherlands) in a fluorescent imaging plate reader (FLIPR 3, Molecular Devices, Sunnyvale, USA), as described hereinafter.
Human CaV2.2 channels were stably expressed in HEK293 cells together with alpha2-delta and beta subunits of voltage gated calcium channels. In addition, an inwardly rectifying potassium channel (Kir2.3) was stably expressed in these cells to augment control of the cell membrane potential by the concentration of extracellular potassium ions. Raise of the extracellular potassium concentration leads to depolarization of the membrane potential and thus regulates the voltage dependent state of CaV2.2 channels. For preparation, cells were seeded in black poly-D-lysine coated 96-well plates (Becton Dickinson, Biocoat 4640) in 100 μL medium [500 mL DMEM/F-12 plus Glutamax (Invitrogen 31331-093) plus 5.5 mL MEM NEAA 100× (Invitrogen 11140-035) plus 50 mL FBS decomplemented (Invitrogen 10270-106) plus 200 μg/mL Geneticin (Invitrogen 10131-027) plus 50 μg/mL Hygromycin B (Invitrogen 10687-010) plus 2 μg/mL Blasticidin (anti-bl5b Invivo-Gen) plus 0.2 μg/mL Puromycin (A 11138-03)] at a cell density of 30.000 cells per well. Plates were incubated at 37° C. (5% CO2) for 20 to 23 h. On the day of experiment medium was discarded and cells were loaded with Fluo 4 by addition of 100 μL of basic assay buffer (10 mM HEPES, 1 mM KCl, 149 mM NaCl, 0.8 mM CaCl2, 1.7 mM MgCl2, 10 mM Glucose, 0.1% BSA. pH 7.4) containing 2 μM Fluo 4 (Molecular Probes; F-14201), 0.01% pluronic acid (Molecular Probes; P-6866) and 2.5 mM probenecid (Molecular Probes; P36400). Cells were incubated in the dark at 25° C. for 60 min. Then dye containing buffer was discarded and 100 μL basic (1 mM KCl) or alternative (30 mM KCl) assay buffer was added. The alternative assay buffer contained altered concentrations of KCl (30 mM) and NaCl (120 mM) and was used in order to promote the inactivated channel state. After that 25 μL of basic or alternative assay buffer with or without test compound were added and cells were incubated again in the dark at 25° C. for 15 min. Fluorescence intensity was measured on a FLIPR 3 instrument (Molecular Devices Corp., Sunnyvale, Calif.) with excitation at 480 nm and emission at 535 nm. After continuously reading fluorescence for 30 sec, 50 μL of basic assay buffer containing 210 mM KCl (NaCl omitted) were added for depolarization. Peak fluorescent signal intensity was determined and the amplitude of the peak signal, normalized to base line, was used to measure channel inhibition by test compounds.

Bounds are passed on as bounds.

T1 sequence (Q00975 whole entry): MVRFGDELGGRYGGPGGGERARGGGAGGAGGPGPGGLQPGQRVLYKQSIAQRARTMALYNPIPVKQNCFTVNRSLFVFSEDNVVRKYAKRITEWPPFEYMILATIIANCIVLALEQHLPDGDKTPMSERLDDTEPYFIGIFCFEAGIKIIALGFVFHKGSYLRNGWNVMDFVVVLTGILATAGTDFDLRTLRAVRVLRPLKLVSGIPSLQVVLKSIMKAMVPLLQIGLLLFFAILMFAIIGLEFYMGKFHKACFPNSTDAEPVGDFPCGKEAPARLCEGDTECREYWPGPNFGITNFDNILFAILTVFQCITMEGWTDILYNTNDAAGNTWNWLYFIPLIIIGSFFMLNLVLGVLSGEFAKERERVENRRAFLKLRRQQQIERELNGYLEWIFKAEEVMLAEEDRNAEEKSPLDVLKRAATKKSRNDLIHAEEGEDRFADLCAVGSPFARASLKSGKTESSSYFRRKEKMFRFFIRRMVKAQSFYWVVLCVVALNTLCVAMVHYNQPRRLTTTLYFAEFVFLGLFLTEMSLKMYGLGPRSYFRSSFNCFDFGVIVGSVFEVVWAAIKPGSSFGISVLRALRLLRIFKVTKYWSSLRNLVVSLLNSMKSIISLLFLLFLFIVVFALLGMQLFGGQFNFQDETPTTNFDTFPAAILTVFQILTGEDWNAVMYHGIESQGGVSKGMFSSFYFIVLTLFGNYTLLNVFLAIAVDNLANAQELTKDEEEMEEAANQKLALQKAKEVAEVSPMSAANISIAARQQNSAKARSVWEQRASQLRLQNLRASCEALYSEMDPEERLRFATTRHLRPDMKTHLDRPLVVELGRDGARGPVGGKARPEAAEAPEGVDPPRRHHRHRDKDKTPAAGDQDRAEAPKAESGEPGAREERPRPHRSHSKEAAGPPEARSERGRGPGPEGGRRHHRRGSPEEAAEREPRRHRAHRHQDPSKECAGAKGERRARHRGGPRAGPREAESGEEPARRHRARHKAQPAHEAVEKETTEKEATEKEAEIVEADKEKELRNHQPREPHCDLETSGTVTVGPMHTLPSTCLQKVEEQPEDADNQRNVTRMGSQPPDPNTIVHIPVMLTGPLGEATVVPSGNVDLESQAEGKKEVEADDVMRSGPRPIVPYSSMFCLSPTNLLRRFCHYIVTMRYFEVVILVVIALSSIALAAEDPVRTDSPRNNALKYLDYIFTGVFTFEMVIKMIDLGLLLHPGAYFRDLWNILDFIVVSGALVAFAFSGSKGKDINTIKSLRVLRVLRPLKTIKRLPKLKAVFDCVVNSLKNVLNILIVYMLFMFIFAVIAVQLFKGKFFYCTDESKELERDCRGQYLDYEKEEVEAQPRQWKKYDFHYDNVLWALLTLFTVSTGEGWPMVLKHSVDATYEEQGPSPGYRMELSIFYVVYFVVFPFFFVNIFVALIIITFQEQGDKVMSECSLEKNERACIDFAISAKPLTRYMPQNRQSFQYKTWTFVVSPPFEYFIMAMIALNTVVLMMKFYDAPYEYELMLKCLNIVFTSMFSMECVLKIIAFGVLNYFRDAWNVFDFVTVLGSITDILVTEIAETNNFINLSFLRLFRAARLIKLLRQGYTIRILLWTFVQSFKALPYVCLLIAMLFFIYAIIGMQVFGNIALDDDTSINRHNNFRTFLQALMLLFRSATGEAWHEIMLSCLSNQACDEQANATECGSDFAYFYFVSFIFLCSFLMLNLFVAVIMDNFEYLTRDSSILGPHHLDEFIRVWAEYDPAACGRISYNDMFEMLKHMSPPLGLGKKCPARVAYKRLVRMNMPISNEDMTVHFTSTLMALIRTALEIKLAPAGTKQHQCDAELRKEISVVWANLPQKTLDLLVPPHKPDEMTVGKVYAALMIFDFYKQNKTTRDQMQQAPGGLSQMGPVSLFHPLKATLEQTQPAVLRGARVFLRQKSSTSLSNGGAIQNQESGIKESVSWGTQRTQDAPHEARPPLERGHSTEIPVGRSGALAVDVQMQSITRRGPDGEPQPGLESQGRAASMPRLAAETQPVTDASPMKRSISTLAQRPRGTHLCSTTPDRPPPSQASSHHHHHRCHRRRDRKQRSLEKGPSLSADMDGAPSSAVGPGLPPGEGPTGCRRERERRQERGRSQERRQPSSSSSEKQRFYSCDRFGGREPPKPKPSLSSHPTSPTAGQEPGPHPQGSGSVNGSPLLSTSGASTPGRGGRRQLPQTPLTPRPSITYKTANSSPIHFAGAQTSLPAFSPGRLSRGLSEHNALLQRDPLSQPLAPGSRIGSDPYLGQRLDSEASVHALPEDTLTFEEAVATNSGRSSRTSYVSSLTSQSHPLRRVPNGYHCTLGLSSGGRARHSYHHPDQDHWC
T1 sequence (P54289 25-1103, further chain): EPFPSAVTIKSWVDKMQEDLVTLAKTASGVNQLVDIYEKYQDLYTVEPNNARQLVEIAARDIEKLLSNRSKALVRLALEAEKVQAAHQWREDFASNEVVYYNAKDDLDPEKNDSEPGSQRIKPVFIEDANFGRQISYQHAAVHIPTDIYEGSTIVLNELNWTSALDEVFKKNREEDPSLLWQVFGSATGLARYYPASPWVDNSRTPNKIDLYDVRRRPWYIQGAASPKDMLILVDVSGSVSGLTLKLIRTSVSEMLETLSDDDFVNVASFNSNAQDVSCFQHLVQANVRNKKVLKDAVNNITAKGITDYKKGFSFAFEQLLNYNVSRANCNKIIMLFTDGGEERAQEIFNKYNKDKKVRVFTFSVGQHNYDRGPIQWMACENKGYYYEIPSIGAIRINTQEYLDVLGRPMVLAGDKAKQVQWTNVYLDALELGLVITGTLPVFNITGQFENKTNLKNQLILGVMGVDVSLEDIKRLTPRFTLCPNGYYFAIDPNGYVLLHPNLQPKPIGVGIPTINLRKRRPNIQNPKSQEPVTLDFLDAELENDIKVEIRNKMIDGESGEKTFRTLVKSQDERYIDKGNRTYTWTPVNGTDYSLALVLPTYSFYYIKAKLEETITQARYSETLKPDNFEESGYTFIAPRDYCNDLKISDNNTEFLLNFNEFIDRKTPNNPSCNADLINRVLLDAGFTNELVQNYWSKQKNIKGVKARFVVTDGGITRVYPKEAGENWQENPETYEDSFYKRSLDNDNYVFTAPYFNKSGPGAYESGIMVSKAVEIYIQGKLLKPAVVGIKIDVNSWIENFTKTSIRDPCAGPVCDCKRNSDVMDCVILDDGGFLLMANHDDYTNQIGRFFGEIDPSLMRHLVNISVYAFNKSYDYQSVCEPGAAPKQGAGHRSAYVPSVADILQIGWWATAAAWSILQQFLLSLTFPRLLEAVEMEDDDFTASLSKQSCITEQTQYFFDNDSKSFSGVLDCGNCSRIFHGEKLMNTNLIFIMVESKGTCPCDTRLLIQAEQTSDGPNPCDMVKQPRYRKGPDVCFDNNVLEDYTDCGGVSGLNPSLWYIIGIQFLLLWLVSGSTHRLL
T1 sequence (P54284 whole entry, further chain): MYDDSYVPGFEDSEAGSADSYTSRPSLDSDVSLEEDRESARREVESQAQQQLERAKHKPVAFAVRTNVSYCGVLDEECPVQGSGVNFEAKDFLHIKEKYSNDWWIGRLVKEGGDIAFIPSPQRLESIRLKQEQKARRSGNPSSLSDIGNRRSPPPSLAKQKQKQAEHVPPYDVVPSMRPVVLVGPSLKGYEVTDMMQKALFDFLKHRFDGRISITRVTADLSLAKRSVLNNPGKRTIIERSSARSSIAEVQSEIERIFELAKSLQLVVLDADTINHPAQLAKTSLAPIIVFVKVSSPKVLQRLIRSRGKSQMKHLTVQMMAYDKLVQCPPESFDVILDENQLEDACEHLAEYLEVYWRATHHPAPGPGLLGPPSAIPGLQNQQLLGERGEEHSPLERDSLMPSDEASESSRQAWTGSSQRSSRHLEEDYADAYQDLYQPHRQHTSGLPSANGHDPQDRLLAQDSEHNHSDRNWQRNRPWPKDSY

On to `Cc1ccnc(Cn2c(C(F)(F)F)cc(-c3ccc(Cl)cc3)c2C(=O)N(C)CC(C)(C)C)n1` [Example 036, 3-(4-Chlorophenyl)-N-(2,2-dimethyl-propyl)-N-methyl-1-[(4-methyl-pyrimidin-2-yl)-methyl]-5-(trifluoromethyl)-1H-pyrrole-2-carboxylic acid amide], for which the inhibition at 3 µM is greater than 95%.
As for `Cc1noc(Cn2c(C(=O)N(C)CCS(C)(=O)=O)c(-c3ccc(Cl)cc3)c(C)c2C(F)(F)F)n1` [Example 015, 3-(4-Chlorophenyl)-N,4-dimethyl-1-[(3-methyl-[1,2,4]oxadiazol-5-yl)-methyl]-N-(2-methylsulfonyl-ethyl)-5-(trifluoromethyl)-1H-pyrrole-2-carboxylic acid amide], the inhibition at 3 µM was in the range of 75 to 95%.
As for `Cc1c(-c2ccc(Cl)cc2)c(C(=O)N(C)C(C)C)n(Cc2ncccn2)c1C(F)(F)F` [Example 061, 3-(4-Chlorophenyl)-N-isopropyl-N,4-dimethyl-1-(pyrimidin-2-yl-methyl)-5-(trifluoromethyl)-1H-pyrrole-2-carboxylic acid amide], the inhibition at 3 µM is greater than 95%.
With `Cc1cc(Cn2c(C(=O)N(C)C(C)C)c(-c3ccc(Cl)cc3)c(C)c2C(F)(F)F)no1` [Example 068, 3-(4-Chlorophenyl)-N-isopropyl-N,4-dimethyl-1-[(5-methyl-isoxazol-3-yl)-methyl]-5-(trifluoromethyl)-1H-pyrrole-2-carboxylic acid amide] the figure was greater than 95%; with `CC1(C)CN(C(=O)c2c(-c3ccc(F)cc3)cc(C(F)(F)F)n2Cc2ncccn2)CCO1` [Example 031, (2,2-Dimethyl-morpholin-4-yl)-[3-(4-fluorophenyl)-1-(pyrimidin-2-yl-methyl)-5-(trifluoromethyl)-1H-pyrrol-2-yl]-methanone], 40 to 75%.
Next, `CN(CC(C)(C)C)C(=O)c1c(-c2ccc(Cl)cc2)cc(C(F)(F)F)n1Cc1ccnc(C(F)(F)F)n1` [Example 033, 3-(4-Chlorophenyl)-N-(2,2-dimethyl-propyl)-N-methyl-5-(trifluoromethyl)-1-[[2-(trifluoromethyl)-pyrimidin-4-yl]-methyl]-1H-pyrrole-2-carboxylic acid amide]: 40 to 75%; `CN(CC(C)(C)C)C(=O)c1c(-c2ccc(Cl)cc2)cc(C(F)(F)F)n1Cc1cncn1C` [Example 026, 3-(4-Chlorophenyl)-N-(2,2-dimethyl-propyl)-N-methyl-1-[(3-methyl-3H-imidazole-4-yl)-methyl]-5-(trifluoromethyl)-1H-pyrrole-2-carboxylic acid amide]: 75 to 95%.
As to `Cc1ccnc(Cn2c(C(=O)N3CCOCC3)c(-c3ccc(Cl)cc3)c(C)c2C(F)(F)F)n1` [Example 046, [3-(4-Chlorophenyl)-4-methyl-1-[(4-methyl-pyrimidin-2-yl)-methyl]-5-(trifluoromethyl)-1H-pyrrol-2-yl]-morpholin-4-yl-methanone], the inhibition at 3 µM is greater than 95%.
As to `Cc1cnc(Cn2c(C(F)(F)F)cc(-c3ccc(Cl)cc3)c2C(=O)N(C)CC(C)(C)C)cn1` [Example 030, 3-(4-Chlorophenyl)-N-(2,2-dimethyl-propyl)-N-methyl-1-[(5-methyl-pyrazin-2-yl)-methyl]-5-(trifluoromethyl)-1H-pyrrole-2-carboxylic acid amide], the inhibition at 3 µM was greater than 95%.
Next, `Cc1c(-c2ccc(Cl)cc2)c(C(=O)N2CCOCC2)n(Cc2cn(C)nn2)c1C(F)(F)F` [Example 017, [3-(4-Chlorophenyl)-4-methyl-1-[(1-methyl-1H-[1,2,3]triazol-4-yl)-methyl]-5-(trifluoromethyl)-1H-pyrrol-2-yl]-morpholin-4-yl-methanone]: 40 to 75%; `Cc1cc(CN(C)C(=O)c2c(-c3ccc(Cl)cc3F)c(C)c(C(F)(F)F)n2Cc2ncccn2)no1` [Example 066, 3-(4-Chloro-2-fluoro-phenyl)-N,4-dimethyl-N-[(5-methyl-isoxazol-3-yl)-methyl]-1-(pyrimidin-2-yl-methyl)-5-(trifluoromethyl)-1H-pyrrole-2-carboxylic acid amide]: greater than 95%; `Cc1ncc(Cn2c(C(=O)N3CCOCC3)c(-c3ccc(Cl)cc3)c(C)c2C(F)(F)F)cn1` [Example 043, [3-(4-Chlorophenyl)-4-methyl-1-[(2-methyl-pyrimidin-5-yl)-methyl]-5-(trifluoromethyl)-1H-pyrrol-2-yl]-morpholin-4-yl-methanone]: 75 to 95%.
For `CN(CC(C)(C)C)C(=O)c1c(-c2ccc(Cl)cc2)cc(C(F)(F)F)n1Cc1ccnn1C` [Example 008, 3-(4-Chlorophenyl)-N-(2,2-dimethyl-propyl)-N-methyl-1-[(2-methyl-2H-pyrazol-3-yl)-methyl]-5-(trifluoromethyl)-1H-pyrrole-2-carboxylic acid amide], the inhibition at 3 µM was in the range of 75 to 95%.
